The record followed here is PubChem BioAssay AID2610 (Broad Institute, 2010).

Structures are written as SMILES. Records with an inconclusive call do not appear. Active and inactive are the calls of the source.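 Rule for the calls: active = EC50 no more than tenfold above the top concentration tested, with valid fit and all samples agreeing; inconclusive = flat fit at 30 to 70% inhibition, poor fit, or split samples; inactive = EC50 beyond tenfold the top concentration tested.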

This test relates to BJeLR fibroblast viability, Alamar Blue fluorescence, 48 h. The test is described as follows: cytotoxicity toward RAS-transformed BJeLR fibroblasts, dose response, cell-based, alamar blue fluorescence, 48 h, cherrypicked samples (AID 2610).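 Note: BJ fibroblasts with hTERT plus SV40 large and small T and HRAS V12; EC50 for loss of viable cells so potency reflects cytotoxic compounds.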 On the technique in general: Alamar Blue is a resazurin reagent that responds to reducing activity.
Consider `O=C1N(c2ccccc2)C[C@@H]2C[C@@H](c3cc4ccccc4o3)N3CCC[C@@]123`, for which the 50% effective concentration (EC50) (as a rule, the concentration at which the effect is half-maximal) is 610 nM.

Consider `COc1ccc(-c2cc3nc(C)cc(N)n3n2)cc1`, for which the EC50 was > 13300 nM (inactive).

Regarding `COc1cccc(C(=O)N/N=C(/c2ccccc2)c2ccccn2)c1`, the concentration for a half-maximal effect (EC50) is 821 nM.

For `Cc1nc2ccc(CN(C)c3ccc(C(=O)N[C@@H](CCC(=O)O)C(=O)O)s3)cc2c(=O)[nH]1`, the EC50 was > 13300 nM (inactive).

`CCCCc1c(C)c(C#N)c2nc3ccccc3n2c1Cl`: the 50% effective concentration (EC50) is 587 nM.

With `C/C(=N\NC(=O)c1ccc(F)cc1)c1ccccn1`, the concentration for a half-maximal effect (EC50) is 491 nM.

In the case of `CCOC(=O)c1c(C)[nH]c2c1-c1ccccc1C(=O)C2=O`, the EC50 was 492 nM.

For the compound `Cc1occc1C(=O)N/N=C/c1ccc2c(c1)OCO2`, the EC50 is > 13300 nM (inactive).

For the compound `COc1cc(C2CC(c3cccs3)=NN2C(=O)CCl)ccc1OC(F)F` (stereo not given), the EC50 was 271 nM.

`CC(C)[C@]12O[C@H]1[C@@H]1O[C@]13[C@]1(O[C@H]1C[C@H]1C4=C(CC[C@@]13C)C(=O)OC4)[C@@H]2O`: the half-maximal effective concentration (EC50) was below 104 nM.

As to `COc1cc(OC)cc(C(=O)N[C@H](C(=O)Nc2nc3ccccc3[nH]2)C(C)C)c1`, the EC50 is 324 nM.

In the case of `CCSc1cc(C2C(C#N)=C(N)Oc3n[nH]c(C)c32)c(C)o1` (stereo not given), the EC50 is 11500 nM.

Take `COC(=O)C1=C(C)N(Cc2ccccc2)C(=NCc2cccc(C(F)(F)F)c2)N[C@H]1c1cccc(F)c1`: the EC50 was > 13300 nM (inactive).

With `CC1CCCN(c2ccc([N+](=O)[O-])cc2C(=O)c2ccccc2)C1` (stereo not given), the EC50 was below 104 nM.

For `N#CC1=C(N)Oc2cc(N)ccc2C1c1cccc(Br)c1` (stereo not given), the EC50 is 318 nM.

In the case of `COc1ccc(S(=O)(=O)N2CCOCC2)cc1NC(=O)CCNC(=O)c1ccc(Br)cc1`, the EC50 is 440 nM.

As to `O=C(/C=C/c1ccco1)Nc1ccc(Oc2ccccc2)cc1`, the EC50 was > 13300 nM (inactive).

`Cc1cc2nc(/C=C/c3cccnc3)[nH]c2cc1C`: the half-maximal effective concentration (EC50) was below 104 nM.

With `Cn1c(/C=C/c2ccc([N+](=O)[O-])o2)nc2ccccc2c1=O`, the EC50 was 544 nM.

On to `C(=N\Nc1nc2ccccc2[nH]1)/c1ccc2ncccc2c1`, for which the EC50 is > 13300 nM (inactive).

In the case of `O=C(NCCOc1cccnc1)c1ccc(OC2CCN(Cc3ccccn3)CC2)cc1`, the concentration for a half-maximal effect (EC50) is below 91.9 nM.

`Cc1ccc(-c2nn(CC(=O)NCc3cc(-c4nn(C)c(=O)c5ccccc45)ccc3C)c(=O)c3ccccc23)cc1`: the EC50 is > 13300 nM (inactive).

As to `O=C(c1cccs1)c1no[n+]([O-])c1C(=O)c1cccs1`, the EC50 was 2990 nM.

In the case of `Nc1nc(CCl)nc(N(c2ccccc2)c2ccccc2)n1`, the concentration for a half-maximal effect (EC50) was 121 nM.

For the compound `C=C1C(=O)O[C@@H]2C[C@@H](C)[C@H]3C=CC(=O)[C@]3(O)C[C@@H]12`, the EC50 is 4550 nM.

Regarding `COc1ccccc1/C=C1\SC(=S)N(CCC(=O)NCCCn2ccnc2)C1=O`, the EC50 is > 13300 nM (inactive).

Take `COc1ccc(-c2nnc(NC(=O)c3ccc(S(=O)(=O)N4CCc5ccccc5C4)cc3)o2)cc1`: the half-maximal effective concentration (EC50) is 2600 nM.

On to `Cn1ncc2c(O/N=C(\N)c3ccc(C(C)(C)C)cc3)ncnc21`, for which the concentration giving a half-maximal response (EC50) is 2340 nM.

Regarding `C/C(=N\Nc1ncnc2sc(C)c(C)c12)c1ccccn1`, the EC50 was below 104 nM.

As for `CCN1/C(=C/c2ccc3cc(C)ccc3[n+]2CC)Sc2ccc3sccc3c21`, the EC50 was below 104 nM.

For `O=C(Cc1ccc(Cl)cc1)c1c[nH]c(C(=O)NCc2cccnc2)c1`, the EC50 was > 13300 nM (inactive).

Take `CCCCCOc1ccc(Br)cc1/C(C)=N/NC1=NCCN1`: the concentration giving a half-maximal response (EC50) was 697 nM.

`FC(F)(F)c1nnc2c(Sc3ccc(Cl)cc3)nc3ccccc3n12`: the EC50 was 531 nM.

Consider `CCCc1cc(=O)[nH]c(SCC(=O)c2c(N)n(CC(C)C)c(=O)n(C)c2=O)n1`, for which the EC50 is > 13300 nM (inactive).

Take `CSc1ccc(COC(=O)c2cc([N+](=O)[O-])ccc2N2CCOCC2)cc1`: the concentration for a half-maximal effect (EC50) was below 104 nM.

Consider `CCN1CCc2c(sc(NC(=O)c3cc4ccccc4cc3OC)c2C(N)=O)C1`, for which the concentration giving a half-maximal response (EC50) was 588 nM.

Turning to `O=C(c1ccc2c3n(nc2c1)-c1ccccc1CO3)N1CCOCC1`, the EC50 was > 13300 nM (inactive).

For the compound `COc1ccc(N(C(=O)CCl)C(C(=O)NCCc2ccccc2)c2cccs2)cc1` (stereo not given), the 50% effective concentration (EC50) was 428 nM.

With `O=[N+]([O-])c1ccccc1N/N=C\c1ccccc1Cl`, the EC50 was > 13300 nM (inactive).

On to `Cc1ccc(/C=N/NC(=O)c2cc(-c3ccncc3)nc3ccccc23)o1`, for which the EC50 is 685 nM.

Take `O=C(NC(Nc1nc2ccc([N+](=O)[O-])cc2s1)(C(F)(F)F)C(F)(F)F)c1ccccc1Cl`: the EC50 is 427 nM.

Take `COc1ccccc1C(=O)Nc1nc2ccccc2[nH]1`: the EC50 is > 13300 nM (inactive).

In the case of `O=C(N/N=C/c1cccnc1)c1ccc(NC(=O)C(c2ccccc2)c2ccccc2)cc1`, the EC50 is 344 nM.

As to `CCOc1ccc(CC(=O)Nc2ccc(NC(=O)c3ccco3)cc2)cc1OCC`, the EC50 is 2060 nM.

Turning to `O=c1cnnc(N/N=C/c2ccccn2)[nH]1`, the EC50 is 1030 nM.

Turning to `CSc1cc(-c2ccccc2)n(Cc2ccccc2Cl)c(=O)c1C#N`, the EC50 is 709 nM.

In the case of `CCOC(=O)/C(=C\c1ccc([N+](=O)[O-])cc1)C(=O)c1cc(C(C)=O)c(Nc2ccccc2)s1`, the EC50 was 958 nM.

Turning to `COc1ccc(C2C(O)C(c3c[nH]c4ccccc34)=NN2C(=O)CCl)cc1` (stereo not given), the 50% effective concentration (EC50) is 307 nM.

As for `Oc1ccc(/C=N/Nc2nccnc2Cl)c(O)c1`, the concentration giving a half-maximal response (EC50) is 6750 nM.

As to `CCCC(=O)Nc1ccc(C(=O)N/N=C/c2ccc([N+](=O)[O-])o2)cc1`, the concentration for a half-maximal effect (EC50) is below 48.8 nM.

As for `CCOc1ccc(Nc2nc(N)nc(CCl)n2)cc1`, the EC50 was 391 nM.

On to `CCN(CC)Cc1c(O)ccc2c1O/C(=C\C=C\c1ccccc1)C2=O`, for which the EC50 is > 13300 nM (inactive).

On to `COc1ccc(C)cc1NS(=O)(=O)c1ccc(-c2cnc(C3CC3)o2)cc1`, for which the EC50 was below 104 nM.

As to `Cc1ccc(NC(=O)[C@H](Cc2c[nH]c3ccccc23)NC(=O)[C@@H]2Cc3ccccc3CN2)c(C)c1`, the EC50 was > 13300 nM (inactive).

With `CCOC(=O)c1c(CSC(=N)N)n(-c2ccc(C)cc2)c2cc(Br)c(OC(C)=O)cc12`, the EC50 was > 13300 nM (inactive).

With `Cc1sc2cc3c(c(C(=O)c4ccccc4)[n+]2c1C)-c1cccc2cccc-3c12`, the EC50 was 10500 nM.

Regarding `COc1ccc(C(=O)Nc2nc3ccccc3s2)c(OC)c1`, the EC50 is > 13300 nM (inactive).

With `CC(C)C(=O)Nc1ccc(C(=O)NCc2cccnc2)cc1`, the EC50 was 742 nM.

With `CNC1=C(N(C(C)=O)c2ccc(Br)cc2)C(=O)c2ccccc2C1=O`, the EC50 was 1350 nM.

As to `COc1cc(NC(=O)c2cccs2)c(OC)cc1NC(=O)CCC(=O)Nc1ccc2ncccc2c1`, the EC50 is > 13300 nM (inactive).

On to `C=C1C(=O)C=C2CN(C(=O)c3ccccc3)[C@@](Cc3ccc(F)cc3)(C(=O)OC)[C@@H]12`, for which the EC50 was 140 nM.

In the case of `COC(=O)C1CN(C#N)N(c2ccc(Cl)cc2)C12c1ccccc1-c1ccccc12` (stereo not given), the EC50 is 567 nM.

Consider `O=C(c1cc([N+](=O)[O-])ccc1N1CCOCC1)N1CCN(c2ccccc2)CC1`, for which the EC50 is below 104 nM.

For `C/C(=N\Nc1ncc(Cl)cc1Cl)c1ccccn1`, the half-maximal effective concentration (EC50) is below 22.2 nM.

Regarding `COc1ccc(NC(=O)CN(C)S(=O)(=O)c2ccc3[nH]c(=O)oc3c2)cc1`, the EC50 is > 13300 nM (inactive).
